{"source": "ChEMBL document CHEMBL3044602", "about": "“In vitro antiproliferative effect of -phenylethylamine derivatives and doxorubicin combinations on MCF/ADR cell lines” (Med Chem Res, 2013)", "key": {"[1]": {"test": "Cytotoxicity against Homo sapiens (human) MCF7/ADR cells assessed as inhibition of cell proliferation after 48 hr by SRB assay", "type": "cell-based, NCI/ADR-RES", "details": "for IC10: human"}, "[2]": {"target": "ATP-dependent translocase ABCB1 (Homo sapiens, UniProt P08183)", "sequence (P08183 whole entry)": "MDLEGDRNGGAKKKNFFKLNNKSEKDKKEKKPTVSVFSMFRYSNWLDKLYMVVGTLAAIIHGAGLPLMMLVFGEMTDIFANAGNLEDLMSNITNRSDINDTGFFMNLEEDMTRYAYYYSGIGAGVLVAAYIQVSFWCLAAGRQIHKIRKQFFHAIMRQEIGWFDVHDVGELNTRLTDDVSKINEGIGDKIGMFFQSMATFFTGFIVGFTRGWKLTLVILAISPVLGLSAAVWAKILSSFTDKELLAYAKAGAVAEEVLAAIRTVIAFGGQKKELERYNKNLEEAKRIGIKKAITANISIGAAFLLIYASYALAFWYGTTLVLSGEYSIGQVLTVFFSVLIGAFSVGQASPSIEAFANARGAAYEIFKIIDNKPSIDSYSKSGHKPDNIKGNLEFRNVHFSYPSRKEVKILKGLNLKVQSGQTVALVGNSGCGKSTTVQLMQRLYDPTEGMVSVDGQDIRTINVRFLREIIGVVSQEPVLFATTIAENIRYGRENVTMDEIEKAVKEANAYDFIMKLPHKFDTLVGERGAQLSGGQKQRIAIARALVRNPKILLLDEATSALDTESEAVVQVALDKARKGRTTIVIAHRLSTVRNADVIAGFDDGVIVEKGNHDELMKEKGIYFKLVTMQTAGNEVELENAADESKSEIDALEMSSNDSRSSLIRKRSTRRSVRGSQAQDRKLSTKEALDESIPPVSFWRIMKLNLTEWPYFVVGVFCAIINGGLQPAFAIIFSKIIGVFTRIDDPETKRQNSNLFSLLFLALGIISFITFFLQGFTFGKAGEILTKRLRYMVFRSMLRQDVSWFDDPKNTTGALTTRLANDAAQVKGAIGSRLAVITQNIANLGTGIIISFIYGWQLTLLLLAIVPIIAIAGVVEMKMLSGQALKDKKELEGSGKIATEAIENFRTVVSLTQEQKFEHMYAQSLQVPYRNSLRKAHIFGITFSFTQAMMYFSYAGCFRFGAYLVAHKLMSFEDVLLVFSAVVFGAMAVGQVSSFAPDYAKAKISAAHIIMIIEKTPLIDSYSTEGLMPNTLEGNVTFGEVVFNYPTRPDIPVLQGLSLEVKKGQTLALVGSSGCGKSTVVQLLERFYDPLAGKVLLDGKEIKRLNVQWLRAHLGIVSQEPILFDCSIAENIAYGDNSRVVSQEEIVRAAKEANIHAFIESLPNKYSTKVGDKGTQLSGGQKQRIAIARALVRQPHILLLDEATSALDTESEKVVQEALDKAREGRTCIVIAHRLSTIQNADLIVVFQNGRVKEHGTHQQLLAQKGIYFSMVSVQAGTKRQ", "test": "Inhibition of P-glycoprotein in Homo sapiens (human) MCF7/ADR cells assessed as doxorubicin-induced growth inhibition after 48 hr by SRB assay (Doxorubicin Rvb = 5.1 +/-1.2%)", "type": "cell-based", "details": "nci/adr-res"}, "[3]": {"tested_on": "MCF7", "test": "Cytotoxicity against Homo sapiens (human) MCF7 cells assessed as inhibition of cell proliferation after 48 hr by SRB assay", "type": "cell-based", "details": "mcf7, 48 h"}, "[4]": {"details": "Homo sapiens, NCI/ADR-RES, 48 h"}}, "data": [{"smiles": "COC(=O)/C(=C\\c1ccc([N+](=O)[O-])cc1)CNCCc1ccc(OC)c(OC)c1", "values": [{"measurement": "IC50", "setting": "[1]; [4]", "value": 0.89, "unit": "µM"}, {"measurement": "IC10", "setting": "[1]; nci/adr-res, 48 h", "value": 0.05, "unit": "µmol/L"}]}, {"smiles": "COC(=O)C(CNCCc1ccc(OC)c(OC)c1)C(O)c1ccc([N+](=O)[O-])cc1", "note": "(centres undefined)", "values": [{"measurement": "IC50", "setting": "[1]; [4]", "value": 85.1, "unit": "µM"}, {"measurement": "IC10", "setting": "[1]; nci/adr-res, 48 h", "value": 15.7, "unit": "µmol/L"}, {"measurement": "growth inhibition (GI)", "setting": "[2]", "value": 12.9, "unit": "%"}, {"measurement": "Activity", "setting": "[3]", "value": "Non-toxic"}]}, {"smiles": "COC(=O)/C(=C\\c1ccccc1)CNCCc1ccc(OC)c(OC)c1", "values": [{"measurement": "IC50", "setting": "[1]; [4]", "value": 75.8, "unit": "µM"}, {"measurement": "IC10", "setting": "[1]; nci/adr-res, 48 h", "value": 12.9, "unit": "µmol/L"}, {"measurement": "growth inhibition (GI)", "setting": "[2]", "value": 16.1, "unit": "%"}, {"measurement": "Activity", "setting": "[3]", "value": "Non-toxic"}]}, {"smiles": "COC(=O)/C(=C\\c1ccc(OC)c(OC)c1)CNCCc1ccc(OC)c(OC)c1", "values": [{"measurement": "IC50", "setting": "[1]; [4]", "value": 112, "unit": "µM"}, {"measurement": "IC10", "setting": "[1]; nci/adr-res, 48 h", "value": 7.47, "unit": "µmol/L"}, {"measurement": "growth inhibition (GI)", "setting": "[2]", "value": 87.7, "unit": "%"}, {"measurement": "Activity", "setting": "[3]", "value": "Non-toxic"}]}, {"smiles": "COC(=O)/C(=C\\c1ccc2c(c1)OCO2)CNCCc1ccc(OC)c(OC)c1", "values": [{"measurement": "IC50", "setting": "[1]; [4]", "value": 248, "unit": "µM"}, {"measurement": "IC10", "setting": "[1]; nci/adr-res, 48 h", "value": 13.8, "unit": "µmol/L"}, {"measurement": "growth inhibition (GI)", "setting": "[2]", "value": 43.3, "unit": "%"}, {"measurement": "Activity", "setting": "[3]", "value": "Non-toxic"}]}, {"smiles": "COC(=O)C(CNCCc1ccc(OC)c(OC)c1)C(O)c1ccc(OC)c(OC)c1", "note": "(mixture of isomers)", "values": [{"measurement": "growth inhibition (GI)", "setting": "[2]", "value": 6.8, "unit": "%"}, {"measurement": "Activity", "setting": "[3]", "value": "Non-toxic"}]}, {"smiles": "COC(=O)C(CNCCc1ccc(OC)c(OC)c1)C(O)c1ccccc1", "note": "(mixture of isomers)", "values": [{"measurement": "IC50", "setting": "[1]; [4]", "value": 238, "unit": "µM"}, {"measurement": "IC10", "setting": "[1]; nci/adr-res, 48 h", "value": 14, "unit": "µmol/L"}, {"measurement": "growth inhibition (GI)", "setting": "[2]", "value": 11.8, "unit": "%"}, {"measurement": "Activity", "setting": "[3]", "value": "Non-toxic"}]}, {"smiles": "COC(=O)C(CNCCc1ccc(OC)c(OC)c1)C(O)c1ccc2c(c1)OCO2", "note": "(mixture of isomers)", "values": [{"measurement": "IC50", "setting": "[1]; [4]", "value": 238, "unit": "µM"}, {"measurement": "IC10", "setting": "[1]; nci/adr-res, 48 h", "value": 20.7, "unit": "µmol/L"}, {"measurement": "growth inhibition (GI)", "setting": "[2]", "value": 10.4, "unit": "%"}, {"measurement": "Activity", "setting": "[3]", "value": "Non-toxic"}]}, {"smiles": "COC(=O)C(CNCCc1ccc(OC)c(OC)c1)Cc1ccccc1", "note": "(racemic)", "values": [{"measurement": "IC50", "setting": "[1]; [4]", "value": 193, "unit": "µM"}, {"measurement": "IC10", "setting": "[1]; nci/adr-res, 48 h", "value": 15.2, "unit": "µmol/L"}, {"measurement": "growth inhibition (GI)", "setting": "[2]", "value": 3.2, "unit": "%"}, {"measurement": "Activity", "setting": "[3]", "value": "Non-toxic"}]}, {"smiles": "COC(=O)C(CNCCc1ccc(OC)c(OC)c1)Cc1ccc(OC)c(OC)c1", "note": "(racemic)", "values": [{"measurement": "IC50", "setting": "[1]; [4]", "value": 28.9, "unit": "µM"}, {"measurement": "IC10", "setting": "[1]; nci/adr-res, 48 h", "value": 2.39, "unit": "µmol/L"}, {"measurement": "growth inhibition (GI)", "setting": "[2]", "value": 6.9, "unit": "%"}, {"measurement": "Activity", "setting": "[3]", "value": "Non-toxic"}]}, {"smiles": "COC(=O)C(CNCCc1ccc(OC)c(OC)c1)Cc1ccc2c(c1)OCO2", "note": "(racemic)", "values": [{"measurement": "IC50", "setting": "[1]; [4]", "value": 188, "unit": "µM"}, {"measurement": "IC10", "setting": "[1]; nci/adr-res, 48 h", "value": 10.5, "unit": "µmol/L"}, {"measurement": "growth inhibition (GI)", "setting": "[2]", "value": 5.8, "unit": "%"}, {"measurement": "Activity", "setting": "[3]", "value": "Non-toxic"}]}, {"smiles": "COC(=O)C(CNCCc1ccc(OC)c(OC)c1)C(O)c1ccc(OC)c(OC)c1", "note": "(single isomer, unassigned; form 1)", "values": [{"measurement": "IC50", "setting": "[1]; [4]", "value": 371, "unit": "µM"}, {"measurement": "IC10", "setting": "[1]; nci/adr-res, 48 h", "value": 38.2, "unit": "µmol/L"}]}, {"smiles": "COC(=O)C(CNCCc1ccc(OC)c(OC)c1)C(O)c1ccc(OC)c(OC)c1", "note": "(single isomer, unassigned; form 2)", "values": [{"measurement": "IC10", "setting": "[1]; nci/adr-res, 48 h", "value": 30.1, "unit": "µmol/L"}, {"measurement": "IC50", "setting": "[1]; nci/adr-res", "value": 298, "unit": "µM"}]}]}
